Assay results from US6858630B2, “Naphthimidazole derivatives and their use as thrombopoietin mimetics” (SmithKline Beecham Corporation, priority 1999, dated 2005).

Biological target: T1, TPO receptor (Homo sapiens, UniProt P40238)
T1 construct: expressed in transfected cells; host or cells: murine BaF3 cells
T1 sequence (P40238 26-635): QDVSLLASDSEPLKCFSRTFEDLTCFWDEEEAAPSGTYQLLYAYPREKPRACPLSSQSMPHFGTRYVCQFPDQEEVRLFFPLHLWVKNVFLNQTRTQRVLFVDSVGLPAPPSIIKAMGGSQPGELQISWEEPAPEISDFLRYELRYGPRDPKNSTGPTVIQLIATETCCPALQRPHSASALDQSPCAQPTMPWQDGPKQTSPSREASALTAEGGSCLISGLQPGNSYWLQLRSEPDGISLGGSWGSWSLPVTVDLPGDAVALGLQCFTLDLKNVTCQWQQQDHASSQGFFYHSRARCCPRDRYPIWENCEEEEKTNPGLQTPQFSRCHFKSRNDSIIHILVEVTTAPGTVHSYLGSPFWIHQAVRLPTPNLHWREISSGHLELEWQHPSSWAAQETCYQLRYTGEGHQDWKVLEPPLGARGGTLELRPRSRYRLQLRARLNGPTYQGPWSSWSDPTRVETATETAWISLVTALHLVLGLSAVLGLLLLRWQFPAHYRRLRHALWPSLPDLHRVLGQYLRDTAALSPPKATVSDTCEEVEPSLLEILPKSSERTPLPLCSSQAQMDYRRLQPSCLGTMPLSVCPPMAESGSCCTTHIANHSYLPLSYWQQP
Test: Luciferase assay (TPO-responsive BaF3 cell line)
Type: cell-based, murine
Details: at a concentration of 2 uM; control is the maximal response to TPO
Procedure: Compounds of the present invention were tested for potency as mimetics of the TPO receptor in a Luciferase assay such as described in Lamb, et al., Nucleic Acids Research 23; 3283-3289 (1995) and Seidel, et al., Proc. Natl. Acad. Sci., USA 92: 3041-3045 (1995) by substituting a TPO-responsive BaF3 cell line (Vigon et al. Proc. Natl. Acad. Sci. USA 1992, 89, 5640-5644) for the HepG2 cells utilized therein. The murine BaF3 cells express TPO receptors and closely match the pattern of STAT (signal transducers and activators of transcription) activation observed in primary murine and human bone marrow cells.

With `COc1c(-c2ccc(C)cc2)cccc1-c1nc2c(ccc3cc(S(=O)(=O)O)cc(O)c32)[nH]1.Cl` [Compound 14, 2-(3-[4′-Methylphenyl]-2-methoxyphenyl)-9-hydroxy-naphth[1,2-d]imidazole-7-sulfonic acid hydrochloride] the “activation, % of control in the luciferase assay” value was “about 25%”.
